# Data reported in patent publication US11414379B2, “SPAK kinase inhibitors as neuroprotective agents” (United States Government as represented by the Department …, priority 2018, dated 2022).
# Tests used:
# Assay in all cases: Kinase panel (Dundee profiling)
# Format in all cases: biochemical
# Conditions in all cases: read-out: % residual kinase activity
# MAP4K3 = MAP4K3 (Homo sapiens, UniProt Q8IVH8)
# Method in brief: (§1)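 Testing used recombinant enzymes in a radioactive activity assay at two compound levels, 10 and 1 μM. Data give remaining activity as a percentage of vehicle (DMSO), averaged over n=3 with SEM.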
# TAK1 = TAK1 (Homo sapiens, UniProt O43318)
# Method in brief: as §1
# DYRK3 = DYRK3 (Homo sapiens, UniProt O43781)
# Method in brief: as §1
# LKB1 = LKB1 (Homo sapiens, UniProt Q15831)
# Method in brief: as §1
# MNK2 = MNK2 (Homo sapiens, UniProt Q9HBH9)
# Method in brief: as §1
# ERK5 = ERK5 (Homo sapiens, UniProt Q13164)
# Method in brief: as §1
# Aurora B = Aurora B (Homo sapiens, UniProt Q96GD4)
# Method in brief: as §1
# MST4 = MST4 (Homo sapiens, UniProt Q9P289)
# Method in brief: as §1
# MARK1 = MARK1 (Homo sapiens, UniProt Q9P0L2)
# Method in brief: as §1
# PKCa = PKCa (Homo sapiens, UniProt P17252)
# Method in brief: as §1
# ULK1 = ULK1 (Homo sapiens, UniProt O75385)
# Method in brief: as §1
# SIK2 = SIK2 (Homo sapiens, UniProt Q9H0K1)
# Method in brief: as §1
# BRK = BRK (Homo sapiens, UniProt Q13882)
# Method in brief: as §1
# TTBK2 = TTBK2 (Homo sapiens, UniProt Q6IQ55)
# Method in brief: as §1
# GCK = GCK (Homo sapiens, UniProt Q12851)
# Method in brief: as §1
# PAK2 = PAK2 (Homo sapiens, UniProt Q13177)
# Method in brief: as §1
# S6K1 = S6K1 (Homo sapiens, UniProt P23443)
# Method in brief: as §1
# EPH-B1 = EPH-B1 (Homo sapiens, UniProt P54762)
# Method in brief: as §1
# PRK2 = PRK2 (Homo sapiens, UniProt Q16513)
# Method in brief: as §1
# PKBa = PKBa (Homo sapiens, UniProt P31749, S473D)
# Method in brief: as §1
# IRAK4 = IRAK4 (Homo sapiens, UniProt Q9NWZ3)
# Method in brief: as §1
# MNK1 = MNK1 (Homo sapiens, UniProt Q9BUB5)
# Method in brief: as §1
# BRSK1 = BRSK1 (Homo sapiens, UniProt Q8TDC3)
# Method in brief: as §1
# HER4 = HER4 (Homo sapiens, UniProt Q15303)
# Method in brief: as §1
# DDR2 = DDR2 (Homo sapiens, UniProt Q16832)
# Method in brief: as §1
# CHK1 = CHK1 (Homo sapiens, UniProt O14757)
# Method in brief: as §1
# CK1δ = CK1δ (Homo sapiens, UniProt P48730)
# Method in brief: as §1
# EPH-B3 = EPH-B3 (Homo sapiens, UniProt P54753)
# Method in brief: as §1
# TIE2 = TIE2 (Homo sapiens, UniProt Q02763)
# Method in brief: as §1
# JNK2 = JNK2 (Homo sapiens, UniProt P45984)
# Method in brief: as §1
# CK2 = CK2 (Homo sapiens, UniProt P68400)
# Method in brief: as §1
# MKK1 = MKK1 (Homo sapiens, UniProt Q02750)
# Method in brief: as §1
# MAP4K3, sequence (Q8IVH8 whole entry, species assumed): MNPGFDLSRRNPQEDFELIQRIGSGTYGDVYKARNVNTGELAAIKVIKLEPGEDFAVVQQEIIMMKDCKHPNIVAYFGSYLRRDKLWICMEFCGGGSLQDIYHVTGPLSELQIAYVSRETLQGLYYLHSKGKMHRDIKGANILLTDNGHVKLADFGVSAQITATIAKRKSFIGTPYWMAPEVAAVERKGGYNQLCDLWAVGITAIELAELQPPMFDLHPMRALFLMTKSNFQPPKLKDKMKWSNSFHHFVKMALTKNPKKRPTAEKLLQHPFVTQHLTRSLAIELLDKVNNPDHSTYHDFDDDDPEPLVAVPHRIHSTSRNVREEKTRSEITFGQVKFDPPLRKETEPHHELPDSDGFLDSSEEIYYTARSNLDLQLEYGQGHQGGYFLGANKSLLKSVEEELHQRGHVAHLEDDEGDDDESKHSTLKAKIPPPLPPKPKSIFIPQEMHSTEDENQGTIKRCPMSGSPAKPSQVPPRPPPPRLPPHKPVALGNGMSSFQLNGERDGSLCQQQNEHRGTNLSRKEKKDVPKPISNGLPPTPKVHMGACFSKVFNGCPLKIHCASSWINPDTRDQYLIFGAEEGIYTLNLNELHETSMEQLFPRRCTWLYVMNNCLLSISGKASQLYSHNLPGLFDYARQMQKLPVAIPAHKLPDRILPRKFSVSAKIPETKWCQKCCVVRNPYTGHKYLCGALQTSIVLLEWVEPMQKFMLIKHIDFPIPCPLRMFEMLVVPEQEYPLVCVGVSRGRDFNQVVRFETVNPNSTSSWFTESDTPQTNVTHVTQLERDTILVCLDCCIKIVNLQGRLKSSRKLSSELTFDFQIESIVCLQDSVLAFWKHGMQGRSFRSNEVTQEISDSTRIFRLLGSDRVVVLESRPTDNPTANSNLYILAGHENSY
# PRK2, sequence (Q16513 whole entry, species assumed): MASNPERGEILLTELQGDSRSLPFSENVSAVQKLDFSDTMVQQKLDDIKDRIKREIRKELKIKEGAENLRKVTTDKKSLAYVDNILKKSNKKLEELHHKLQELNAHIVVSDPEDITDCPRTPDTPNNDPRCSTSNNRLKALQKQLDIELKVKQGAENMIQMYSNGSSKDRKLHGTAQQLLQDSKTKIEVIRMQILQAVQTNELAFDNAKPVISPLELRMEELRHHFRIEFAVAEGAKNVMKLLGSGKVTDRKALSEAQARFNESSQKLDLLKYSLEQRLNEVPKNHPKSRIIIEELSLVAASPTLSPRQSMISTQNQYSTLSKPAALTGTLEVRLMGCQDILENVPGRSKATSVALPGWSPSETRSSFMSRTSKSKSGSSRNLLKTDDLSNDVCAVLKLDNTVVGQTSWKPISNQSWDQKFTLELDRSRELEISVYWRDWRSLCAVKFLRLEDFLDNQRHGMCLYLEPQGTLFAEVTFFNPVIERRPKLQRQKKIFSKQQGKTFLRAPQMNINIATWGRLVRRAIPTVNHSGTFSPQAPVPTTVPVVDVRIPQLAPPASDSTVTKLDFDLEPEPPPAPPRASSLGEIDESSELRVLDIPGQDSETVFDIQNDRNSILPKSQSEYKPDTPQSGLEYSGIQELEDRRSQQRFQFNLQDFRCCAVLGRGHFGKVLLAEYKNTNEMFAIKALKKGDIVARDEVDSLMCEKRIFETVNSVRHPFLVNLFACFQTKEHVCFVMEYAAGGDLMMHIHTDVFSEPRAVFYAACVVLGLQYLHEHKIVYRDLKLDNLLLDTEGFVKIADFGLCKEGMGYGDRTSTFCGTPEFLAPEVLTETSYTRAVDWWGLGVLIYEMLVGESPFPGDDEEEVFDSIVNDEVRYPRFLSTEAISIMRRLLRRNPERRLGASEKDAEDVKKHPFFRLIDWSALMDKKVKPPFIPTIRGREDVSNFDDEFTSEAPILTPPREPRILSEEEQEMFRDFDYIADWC
# TTBK2, sequence (Q6IQ55 whole entry, species assumed): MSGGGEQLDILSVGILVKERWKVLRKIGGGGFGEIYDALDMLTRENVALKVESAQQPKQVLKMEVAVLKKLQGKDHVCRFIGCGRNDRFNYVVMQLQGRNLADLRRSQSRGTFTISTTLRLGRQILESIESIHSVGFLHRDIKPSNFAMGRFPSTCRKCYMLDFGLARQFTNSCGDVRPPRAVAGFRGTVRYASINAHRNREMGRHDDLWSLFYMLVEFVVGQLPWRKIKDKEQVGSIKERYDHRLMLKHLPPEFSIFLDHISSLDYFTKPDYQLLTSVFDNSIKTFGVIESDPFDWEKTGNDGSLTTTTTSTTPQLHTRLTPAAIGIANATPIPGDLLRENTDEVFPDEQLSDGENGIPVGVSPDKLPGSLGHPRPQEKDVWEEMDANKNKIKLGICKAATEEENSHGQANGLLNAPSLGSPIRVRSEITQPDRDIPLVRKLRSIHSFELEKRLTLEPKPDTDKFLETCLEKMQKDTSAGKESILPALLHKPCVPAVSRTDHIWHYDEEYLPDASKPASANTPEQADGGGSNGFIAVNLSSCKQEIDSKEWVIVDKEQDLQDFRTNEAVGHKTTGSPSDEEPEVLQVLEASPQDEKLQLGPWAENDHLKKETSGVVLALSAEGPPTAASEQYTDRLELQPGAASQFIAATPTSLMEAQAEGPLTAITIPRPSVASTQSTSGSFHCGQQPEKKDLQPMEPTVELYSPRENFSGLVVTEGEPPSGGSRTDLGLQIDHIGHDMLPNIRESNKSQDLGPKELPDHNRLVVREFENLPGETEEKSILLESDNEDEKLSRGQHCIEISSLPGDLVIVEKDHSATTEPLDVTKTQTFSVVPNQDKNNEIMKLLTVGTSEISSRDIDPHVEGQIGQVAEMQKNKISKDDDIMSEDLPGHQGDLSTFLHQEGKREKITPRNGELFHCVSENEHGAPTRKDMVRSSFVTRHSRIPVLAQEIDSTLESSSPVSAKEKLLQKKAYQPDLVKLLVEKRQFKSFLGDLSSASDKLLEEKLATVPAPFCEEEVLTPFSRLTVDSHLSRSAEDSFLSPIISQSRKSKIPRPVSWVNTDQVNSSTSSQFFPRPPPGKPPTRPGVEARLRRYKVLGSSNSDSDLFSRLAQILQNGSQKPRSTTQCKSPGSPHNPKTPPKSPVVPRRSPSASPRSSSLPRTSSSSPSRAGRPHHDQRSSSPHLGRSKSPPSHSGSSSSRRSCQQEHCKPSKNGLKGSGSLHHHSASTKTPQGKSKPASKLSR
# MNK2, sequence (Q9HBH9 whole entry, species assumed): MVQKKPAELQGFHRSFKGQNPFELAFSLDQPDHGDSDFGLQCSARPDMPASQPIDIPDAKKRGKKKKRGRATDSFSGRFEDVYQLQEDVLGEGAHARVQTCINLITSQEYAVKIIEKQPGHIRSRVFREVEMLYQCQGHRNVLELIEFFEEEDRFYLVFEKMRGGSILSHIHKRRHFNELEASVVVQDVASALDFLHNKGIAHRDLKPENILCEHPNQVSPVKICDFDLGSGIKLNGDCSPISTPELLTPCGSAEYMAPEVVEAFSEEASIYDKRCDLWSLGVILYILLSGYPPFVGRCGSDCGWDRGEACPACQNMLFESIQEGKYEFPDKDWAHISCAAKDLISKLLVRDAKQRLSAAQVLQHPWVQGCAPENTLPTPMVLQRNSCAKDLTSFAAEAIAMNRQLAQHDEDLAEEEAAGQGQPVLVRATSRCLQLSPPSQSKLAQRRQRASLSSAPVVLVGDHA
# DYRK3, sequence (O43781 whole entry, species assumed): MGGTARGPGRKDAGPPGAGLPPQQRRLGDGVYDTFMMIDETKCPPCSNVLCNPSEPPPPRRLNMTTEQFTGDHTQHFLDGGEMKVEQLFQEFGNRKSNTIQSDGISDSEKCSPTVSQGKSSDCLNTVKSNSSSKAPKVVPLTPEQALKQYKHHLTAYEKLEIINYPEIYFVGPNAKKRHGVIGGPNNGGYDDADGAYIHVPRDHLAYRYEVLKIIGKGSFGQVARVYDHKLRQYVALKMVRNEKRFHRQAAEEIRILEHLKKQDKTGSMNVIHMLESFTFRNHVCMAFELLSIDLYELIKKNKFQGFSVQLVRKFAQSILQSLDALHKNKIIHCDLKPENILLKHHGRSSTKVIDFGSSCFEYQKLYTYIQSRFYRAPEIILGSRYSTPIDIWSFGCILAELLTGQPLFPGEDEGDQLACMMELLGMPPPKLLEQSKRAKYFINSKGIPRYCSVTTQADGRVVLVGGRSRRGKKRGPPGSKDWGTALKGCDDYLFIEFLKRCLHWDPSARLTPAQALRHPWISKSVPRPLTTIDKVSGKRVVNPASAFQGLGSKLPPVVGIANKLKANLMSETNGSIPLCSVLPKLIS
# MNK1, sequence (Q9BUB5 whole entry, species assumed): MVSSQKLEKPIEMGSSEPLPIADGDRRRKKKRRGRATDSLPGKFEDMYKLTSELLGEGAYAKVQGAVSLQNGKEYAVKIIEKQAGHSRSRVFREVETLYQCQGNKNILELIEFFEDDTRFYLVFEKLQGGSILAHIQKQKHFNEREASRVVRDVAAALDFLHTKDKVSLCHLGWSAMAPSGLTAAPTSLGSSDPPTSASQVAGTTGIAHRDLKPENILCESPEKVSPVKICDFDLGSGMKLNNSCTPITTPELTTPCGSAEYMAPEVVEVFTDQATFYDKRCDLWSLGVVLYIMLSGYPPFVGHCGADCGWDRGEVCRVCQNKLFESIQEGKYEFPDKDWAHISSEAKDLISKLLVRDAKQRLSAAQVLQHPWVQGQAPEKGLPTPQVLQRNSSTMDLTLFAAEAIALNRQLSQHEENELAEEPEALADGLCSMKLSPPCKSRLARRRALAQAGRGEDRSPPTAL
# JNK2, sequence (P45984 whole entry, species assumed): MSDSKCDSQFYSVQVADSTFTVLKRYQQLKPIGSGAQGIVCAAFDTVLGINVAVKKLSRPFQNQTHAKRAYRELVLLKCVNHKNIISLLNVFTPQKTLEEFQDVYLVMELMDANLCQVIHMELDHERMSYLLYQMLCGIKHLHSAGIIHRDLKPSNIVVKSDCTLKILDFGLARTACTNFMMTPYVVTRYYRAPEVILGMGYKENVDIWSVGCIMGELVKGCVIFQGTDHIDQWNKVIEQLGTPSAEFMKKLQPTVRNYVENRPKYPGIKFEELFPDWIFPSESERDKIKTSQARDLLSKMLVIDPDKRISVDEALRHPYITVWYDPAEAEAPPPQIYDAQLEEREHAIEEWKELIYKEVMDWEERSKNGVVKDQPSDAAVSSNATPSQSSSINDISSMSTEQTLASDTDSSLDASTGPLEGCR
smiles,measurement,setting,value
"Cc1cc(C(C#N)c2ccc(Cl)cc2)c(Cl)cc1NC(=O)c1cc(Cl)ccc1O (stereo not shown) [ZT-1a, 5-chloro-N-(5-chloro-4-((4-chlorophenyl)(cyano)methyl)-2-methylphenyl)-2-hydroxy-benzamide]",remaining activity at 1 µM,MAP4K3; 1 μM,134 ± 5%
same,remaining activity at 10 µM,MAP4K3; 10 μM,88 ± 2%
same,remaining activity at 1 µM,TAK1; 1 μM,117 ± 22%
same,remaining activity at 10 µM,TAK1; 10 μM,103 ± 5%
same,remaining activity at 1 µM,DYRK3; 1 μM,113 ± 6%
same,remaining activity at 10 µM,DYRK3; 10 μM,56 ± 15%
same,remaining activity at 1 µM,LKB1; 1 μM,107 ± 8%
same,remaining activity at 10 µM,LKB1; 10 μM,115 ± 11%
same,remaining activity at 1 µM,MNK2; 1 μM,100 ± 7%
same,remaining activity at 10 µM,MNK2; 10 μM,105 ± 3%
same,remaining activity at 1 µM,ERK5; 1 μM,120 ± 9%
same,remaining activity at 10 µM,ERK5; 10 μM,114 ± 5%
same,remaining activity at 1 µM,Aurora B; 1 μM,119 ± 6%
same,remaining activity at 10 µM,Aurora B; 10 μM,92 ± 15%
same,remaining activity at 1 µM,MST4; 1 μM,63 ± 10%
same,remaining activity at 10 µM,MST4; 10 μM,63%
same,remaining activity at 1 µM,MARK1; 1 μM,104 ± 16%
same,remaining activity at 10 µM,MARK1; 10 μM,91 ± 5%
same,remaining activity at 1 µM,PKCa; 1 μM,97 ± 4%
same,remaining activity at 10 µM,PKCa; 10 μM,83 ± 2%
same,remaining activity at 1 µM,ULK1; 1 μM,87 ± 10%
same,remaining activity at 10 µM,ULK1; 10 μM,89 ± 13%
same,remaining activity at 1 µM,SIK2; 1 μM,105 ± 16%
same,remaining activity at 10 µM,SIK2; 10 μM,76 ± 8%
same,remaining activity at 1 µM,BRK; 1 μM,116 ± 12%
same,remaining activity at 10 µM,BRK; 10 μM,103 ± 2%
same,remaining activity at 1 µM,TTBK2; 1 μM,101 ± 32%
same,remaining activity at 10 µM,TTBK2; 10 μM,98 ± 34%
same,remaining activity at 1 µM,GCK; 1 μM,112 ± 4%
same,remaining activity at 10 µM,GCK; 10 μM,97 ± 3%
same,remaining activity at 1 µM,PAK2; 1 μM,110 ± 4%
same,remaining activity at 10 µM,PAK2; 10 μM,93 ± 8%
same,remaining activity at 1 µM,S6K1; 1 μM,119 ± 10%
same,remaining activity at 10 µM,S6K1; 10 μM,81 ± 2%
same,remaining activity at 1 µM,EPH-B1; 1 μM,77 ± 15%
same,remaining activity at 10 µM,EPH-B1; 10 μM,80 ± 19%
same,remaining activity at 1 µM,PRK2; 1 μM,118 ± 4%
same,remaining activity at 10 µM,PRK2; 10 μM,120 ± 7%
same,remaining activity at 1 µM,PKBa; 1 μM,104 ± 1%
same,remaining activity at 10 µM,PKBa; 10 μM,91 ± 4%
same,remaining activity at 1 µM,IRAK4; 1 μM,127%
same,remaining activity at 10 µM,IRAK4; 10 μM,127 ± 11%
same,remaining activity at 1 µM,MNK1; 1 μM,78 ± 19%
same,remaining activity at 10 µM,MNK1; 10 μM,87 ± 2%
same,remaining activity at 1 µM,BRSK1; 1 μM,108 ± 14%
same,remaining activity at 10 µM,BRSK1; 10 μM,88 ± 22%
same,remaining activity at 1 µM,HER4; 1 μM,85 ± 8%
same,remaining activity at 10 µM,HER4; 10 μM,84 ± 1%
same,remaining activity at 1 µM,DDR2; 1 μM,111 ± 20%
same,remaining activity at 10 µM,DDR2; 10 μM,99 ± 8%
same,remaining activity at 1 µM,CHK1; 1 μM,111 ± 11%
same,remaining activity at 10 µM,CHK1; 10 μM,109 ± 8%
same,remaining activity at 1 µM,CK1δ; 1 μM,116 ± 5%
same,remaining activity at 10 µM,CK1δ; 10 μM,114 ± 9%
same,remaining activity at 1 µM,EPH-B3; 1 μM,88 ± 6%
same,remaining activity at 10 µM,EPH-B3; 10 μM,84 ± 6%
same,remaining activity at 1 µM,TIE2; 1 μM,139 ± 74%
same,remaining activity at 10 µM,TIE2; 10 μM,73 ± 11%
same,remaining activity at 1 µM,JNK2; 1 μM,102 ± 2%
same,remaining activity at 10 µM,JNK2; 10 μM,147 ± 51%
same,remaining activity at 1 µM,CK2; 1 μM,72 ± 15%
same,remaining activity at 10 µM,CK2; 10 μM,59 ± 16%
same,remaining activity at 1 µM,MKK1; 1 μM,106 ± 2%
same,remaining activity at 10 µM,MKK1; 10 μM,114 ± 17%
